Test results: patent publication US9790169B2, “IDO inhibitors” (BRISTOL-MYERS SQUIBB COMPANY, priority 2015, dated 2017)

Molecular target: human IDO1 (Homo sapiens, UniProt P14902)
Experiment: Assessment of human IDO-1 inhibitory activity in Hela cells (Interferon-gamma stimulated HeLa cells, Ehrlich reagent, absorbance 490 nm)
Format: cell-based
Parameters: endogenous in cells; host or cells: HeLa cells stimulated with interferon-gamma
Details: Hela Human IDO-1 cellular assay
In short: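 HeLa cells pre-incubated with compound 1 h at 37 °C, then stimulated with human IFN-γ (10 ng/ml final) or murine IFN-γ (5 ng/ml final) for 18 h. Kynurenine read with Ehrlich reagent at 490 nm after TCA (3%) and 50 °C treatment; IC50 normalized to unstimulated (100%) and IFN-γ-only (0%) wells.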

Sequence of human IDO1 (P14902 whole entry): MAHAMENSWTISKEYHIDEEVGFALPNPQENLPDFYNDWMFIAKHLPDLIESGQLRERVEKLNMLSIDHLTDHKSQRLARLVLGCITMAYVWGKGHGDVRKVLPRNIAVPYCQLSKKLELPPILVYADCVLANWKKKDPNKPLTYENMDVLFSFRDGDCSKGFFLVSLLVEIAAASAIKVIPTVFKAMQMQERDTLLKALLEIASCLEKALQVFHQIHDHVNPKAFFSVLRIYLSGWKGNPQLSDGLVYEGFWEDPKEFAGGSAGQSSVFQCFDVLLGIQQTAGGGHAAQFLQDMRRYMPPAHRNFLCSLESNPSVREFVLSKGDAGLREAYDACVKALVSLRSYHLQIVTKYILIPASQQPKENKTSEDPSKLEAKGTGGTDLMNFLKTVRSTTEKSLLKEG

SMILES | IC50
COCC(CC(=O)O)c1ccc(N2CCC(c3ccccc3)CC2)c(NC(=O)Nc2ccc(Cl)cc2F)c1 (single isomer, unassigned) [Example 1357 E2, 3-(3-(3-(4-Chloro-2-fluorophenyl)ureido)-4-(4-phenylpiperidin-1-yl)phenyl)-4-methoxybutanoic acid] | < 50 nM
COCC(CC(=O)O)c1cc(F)c(N(CC(C)C)CC(C)C)c(Nc2ccc3nc(C)sc3c2)c1 (single isomer, unassigned) [Example 925, 3-(4-(diisobutylamino)-3-fluoro-5-((2-methylbenzo [d]thiazol-6-yl)amino)phenyl)-4-methoxybutanoic acid] | < 50 nM
CCC(CC(=O)O)c1ccc(N2CCOCC2)c(Nc2ccc(C#N)cc2)c1 (single isomer, unassigned) [Example 6 Enantiomer 2, 3-(3-((4-Cyanophenyl)amino)-4-morpholinophenyl)pentanoic acid] | < 50 nM
CC[C@@H](CC(=O)O)c1ccc(N(CC2CC2)CC(C)(C)O)c(Nc2ccc(F)cc2)c1 (single isomer, unassigned) [Example 269] | < 50 nM
CCOc1ncc(Nc2cc(C(CC)CC(=O)O)ccc2N2CCN(C(=O)OC)CC2)cn1 (single isomer, unassigned) [Example 669, 3-(3-((2-Ethoxypyrimidin-5-yl)amino)-4-(4-(methoxycarbonyl)piperazin-1-yl)phenyl)pentanoic acid] | > 50 nM
CCC1COCCN1c1ccc([C@H](COC)CC(=O)O)cc1Nc1ccc(C#N)c(F)c1 (single isomer, unassigned) [Example 1288] | > 50 nM
CC[C@@H](CC(=O)O)c1ccc(N(CC2CC2)CC(C)(C)O)c(Nc2ccc(C#N)cc2)c1 (single isomer, unassigned) [Example 268] | < 5 nM
COCC(CC(=O)O)c1ccc(N(C)C2CCOCC2)c(NC(=O)Nc2ccc(Cl)cc2F)c1 (single isomer, unassigned) [Example 886, 3-(3-(3-(4-Chloro-2-fluorophenyl)ureido)-4-(methyl(tetrahydro-2H-pyran-4-yl)amino)phenyl)-4-methoxybutanoic acid] | > 50 nM
COCC(CC(=O)O)c1ccc(N2CCOC(C)C2)c(NC(=O)Nc2ccc(Cl)cc2F)c1 (single isomer, unassigned) [Example 1314 D1, 3-(3-(3-(4-Chloro-2-fluorophenyl)ureido)-4-(2-methylmorpholino)phenyl)-4-methoxybutanoic acid] | > 50 nM
CCC(CC(=O)O)c1ccc(N2C[C@@H]3C[C@H]2CN3CC(F)F)c(Nc2ccc(C#N)cc2)c1 (single isomer, unassigned) [Example 450] | > 50 nM
C[C@@H]1CN(c2ccc(C(CC(=O)O)C3CC3)cc2Nc2ccc(C#N)cc2)C[C@H](C)O1 (single isomer, unassigned) [Example 243] | < 50 nM
CCOc1ncc(Nc2cc(C(COC)CC(=O)O)ccc2N2CCOC[C@@H]2C(C)C)cn1 (single isomer, unassigned) [Example 931] | > 50 nM
CCC(CC(=O)O)c1ccc(N2CCN(C(=O)OC(C)(C)C)CC2)c(Nc2ccc(C#N)cc2)c1 (single isomer, unassigned) [Example 674 Enantiomer 2, 3-(4-(4-(tert-Butoxycarbonyl)piperazin-1-yl)-3-((4-cyanophenyl)amino)phenyl)pentanoic acid] | > 50 nM
COCC(CC(=O)O)c1ccc(N2CCOC[C@H]2C(C)C)c(Nc2ccc(C#N)cc2)c1 (single isomer, unassigned) [Example 909] | < 50 nM
CC(CC(=O)O)c1ccc(N(CC(C)(C)O)C2CCCCC2)c(Nc2ccc(Cl)cc2)c1 (single isomer, unassigned) [Example 48 Enantiomer 1, 3-(3-((4-Chlorophenyl)amino)-4-(cyclohexyl(2-hydroxy-2-methylpropyl)amino)phenyl)butanoic acid] | < 5 nM
CCC1COCCN1c1ccc([C@H](COC)CC(=O)O)cc1Nc1ccc(F)cc1 (single isomer, unassigned) [Example 1309] | < 50 nM
COCC(CC(=O)O)c1ccc(N2CCOC[C@@H]2C(C)C)c(Nc2ccc(Cl)cc2)c1 (single isomer, unassigned) [Example 930] | < 50 nM
CCN(c1ccc([C@H](CC(=O)O)C(F)(F)F)cc1NC(=O)Nc1ccc(C#N)cc1)C1CCOCC1 (single isomer, unassigned) [Example 1268] | > 50 nM
Cc1ccc(NC(=O)Nc2cc(C(C)CC(=O)O)ccc2N2C[C@@H](C)O[C@@H](C)C2)cc1 (single isomer, unassigned) [Example 751] | > 50 nM

Results, then the compound that gave them:

IC50 | SMILES
< 5 nM | CCN(c1ccc([C@@H](COC)CC(=O)O)cc1Nc1ccc(C#N)c(F)c1)C1CCOCC1 (single isomer, unassigned) [Example 353]
< 50 nM | CCOc1ncc(Nc2cc([C@H](CC)CC(O)C(F)(F)F)ccc2N(CC)C2CCOCC2)cn1 (single isomer, unassigned) [Example 1336 D1]
< 50 nM | CCN(c1ccc(C(CC(=O)O)C2CC2)cc1NC(=O)Nc1ccc(C)cc1)C1CCOCC1 (single isomer, unassigned) [Example 40 Enantiomer 2, 3-Cyclopropyl-3-(4-(ethyl(tetrahydro-2H-pyran-4-yl)amino)-3-(3-(p-tolyl)ureido)phenyl)propanoic acid]
< 5 nM | CCN(c1ccc([C@@H](COC)CC(=O)O)cc1Nc1ccc(C#N)cc1F)C1CCOCC1 (single isomer, unassigned) [Example 355]
< 5 nM | CCC(CC(=O)O)c1cnc(N(CC)C2CCOCC2)c(Nc2ccc(Cl)cc2)c1 (racemic) [Example 1380]
< 5 nM | CCCN(c1ccc(C(COC)CC(=O)O)cc1Nc1ccc2c(c1)OC(F)(F)O2)C1CCOCC1 (single isomer, unassigned) [Example 571, 3-(3-((2,2-difluorobenzo[d][1,3]dioxol-5-yl)amino)-4-(propyl (tetrahydro-2H-pyran-4-yl)amino)phenyl)-4-methoxybutanoic acid]
< 50 nM | CCC(CC(=O)O)c1cc(Nc2ccc(C#N)cn2)c(N(CC)C2CCOCC2)cc1F (single isomer, unassigned) [Example 857, 3-(5-((5-cyanopyridin-2-yl)amino)-4-(ethyl(tetra-hydro-2H-pyran-4-yl)amino)-2-fluorophenyl) pentanoic acid]
> 50 nM | CCN(c1ccc([C@@H](COC)CC(=O)O)cc1NC(=O)Nc1ccc(Cl)cc1F)C1CCOCC1 (single isomer, unassigned) [Example 423]
< 50 nM | CCCN(c1ccc([C@H](COC)CC(=O)O)cc1NC(=O)Nc1ccc(Cl)cc1F)C1CCOCC1 (single isomer, unassigned) [Example 576]
< 5 nM | CCC(CC(=O)O)c1ccc(N(CC)C2CCCOC2)c(Nc2cnc(OC)nc2)c1 (single isomer, unassigned) [Example 62, 3-(4-(ethyl(tetrahydro-2H-pyran-3-yl)amino)-3-((2-methoxypyrimidin-5-yl)amino)phenyl)pentanoic acid]
> 50 nM | CCN(c1ccc([C@H](COC)CC(=O)O)cc1NC(=O)Nc1ccc(F)cc1F)C1CCOCC1 (single isomer, unassigned) [Example 442]
< 50 nM | CCCN(c1ccc([C@H](CC)CC(=O)O)cc1Nc1ccc2nc(C)sc2c1)C1CCOCC1 (single isomer, unassigned) [Example 548]
< 5 nM | CCN(c1ccc([C@H](CC(=O)O)C(F)(F)F)cc1NC(=O)Nc1ccc(Cl)cc1F)C1CCOCC1 (single isomer, unassigned) [Example 1267]
< 50 nM | CC[C@H](CC(=O)O)c1ccc(N(CC)C2CCOCC2)c(Nc2ccc(S(=O)(=O)CC)cc2)c1 (single isomer, unassigned) [Example 525]
< 50 nM | CCC(CC(=O)O)c1ccc(N(CC)C2CCS(=O)(=O)CC2)c(Nc2ccc(C#N)cc2)c1 (single isomer, unassigned) [Example 335, 3-(3-((4-cyanophenyl)amino)-4-((1,1-dioxidotetrahydro-2H-thiopyran-4-yl)(ethyl)amino)phenyl) pentanoic acid]
> 50 nM | COCC(CC(=O)O)c1ccc(N(CC2CC2)C2CCOCC2)c(Nc2ccc(C(N)=O)nc2)c1 (single isomer, unassigned) [Example 693, 3-(3-((6-carbamoylpyridin-3-yl)amino)-4-((cyclopropylmethyl) (tetrahydro-2H-pyran-4-yl)amino)phenyl)-4-methoxybutanoic acid]
< 5 nM | COCC(CC(=O)O)c1ccc(N(CC(F)F)C2CCOCC2)c(Nc2ccc(C#N)cc2)c1 (single isomer, unassigned) [Example 322, 3-(3-((4-cyanophenyl)amino)-4-((2,2-difluoroethyl)(tetrahydro-2H-pyran-4-yl)amino)phenyl)-4-methoxybutanoic acid]
< 50 nM | CCCN(c1ccc([C@@H](CC)CC(=O)O)cc1NC(=O)Nc1ccc(C#N)cc1)C1CCOCC1 (single isomer, unassigned) [Example 545]
< 50 nM | CCOc1ccc(Nc2cc([C@@H](CC)CC(=O)O)ccc2N(CC)C2CCOCC2)nn1 (single isomer, unassigned) [Example 467]
< 5 nM | CCCN(c1ccc([C@H](CC)CC(=O)O)cc1Nc1ccc(C#N)cc1)C1CCOCC1 (single isomer, unassigned) [Example 547]
< 50 nM | CCCOc1ncc(Nc2cc(C(C)CC(=O)O)ccc2N(CC)C2CCOCC2)cn1 (single isomer, unassigned) [Example 621, 3-(4-(ethyl(tetrahydro-2H-pyran-4-yl)amino)-3-((2-propoxypyrimidin-5-yl)amino)phenyl)butanoic acid]
< 50 nM | CCOc1ncc(Nc2cc([C@H](CC)CNS(=O)(=O)CC)ccc2N(CC)C2CCOCC2)cn1 [Example 1325, (S)-N-(2-(3-((2-Ethoxypyrimidin-5-yl)amino)-4-(ethyl(tetrahydro-2H-pyran-4-yl)amino)phenyl)butyl)ethanesulfonamide]
